Test results published in patent US20090317474A1, “USE OF POLYETHYLENE GLYCOL IN INFLAMMATION RELATED TOPICAL DISORDERS OR DISEASES AND WOUND HEALING” (Flen Pharma N.V., priority 2006, published 2009).

Columns and labels:
IL-6 [1] = assay: IL-6 expression by J774 macrophages after heat inactivated E. coli stimulation; assay type: cell-based, murine; conditions: J774 cells, with vs without PEG
Method: The cells were cultured with or without PEG (PEG600 diacid) The expression of IL-6 is lowered by about 30% when PEG is added.

VEGF [2] = assay: VEGF expression by fibroblasts (ELISA); assay type: cell-based, murine; conditions: overnight
proMMP-9 = proMMP-9 secretion by J774 macrophages challenged with heat inactivated E. coli; assay type: cell-based, murine
Method: Macrophage cells were pre-conditioned for 30 min. with varying concentrations of PEG400 (0.31-10% w/w) and then challenged with heat inactivated E. coli bacteria. Next, cells were further incubated overnight. The supernatant of cells was analyzed for proMMP-9 according to the manufacturer's indications (R&D systems, Abingdon, UK).

J774 macrophages = assay: Toxicity of PEG on cultivated cells (tetrazolium cell survival); assay type: cell-based, murine
Method: (§1) Cells were grown in DMEM (3T3 fibroblasts and HaCat keratinocytes) or in RPMI1640 (J774 macrophages). Both media were supplemented with heat inactivated 10% Fetal Calf Serum (Sigma), 2 mM L-Glutamine (Sigma) and antibiotics (Sigma). Cells were seeded subconfluent in 96 well plates and contacted for about 16 hours with PEG test compounds which were dissolved in growth media (expressed as w/w end concentrations).
(§2) Cell survival was assayed by the conversion of soluble tetrazolium salt into an insoluble and pink colored formazan (absorption measured at 570 nm).
(§3) Cells were incubated overnight with varying concentrations of PEG 400 (0.31-10% w/w). From 5% onwards, PEG has a cytotoxic effect on in vitro cultivated cells, especially on keratinocytes (FIG. 1A) and on macrophages (FIG. 1B), and to a lesser extent on fibroblasts (FIG. 1C).

3T3 fibroblasts = assay: as above; assay type: cell-based, murine
Method: as §1, §2, §3

VEGF [3] = assay: VEGF expression by vascular endothelial cells (SVEC); assay type: cell-based
Description: (§4) The expression of VEGF upon administration of PEG and/or other humectants was investigated on vascular endothelial cells (SVEC) and on fibroblast cells (3T3). The beneficial role of VEGF expression in the healing of ischemic wounds is described in Corrall et al. (1999) Arch. Surg. 134, 200-205.

VEGF [4] = assay: VEGF expression in 3T3 cells incubated with hydrogel; assay type: cell-based, murine; conditions: Na+-Ca++ alginate gel with 2.5% PEG400 vs gel without PEG400, 16 h
Method: (§5) J774 macrophages were pre-conditioned for 30 min. with the gels and were then challenged with 100 ng/ml LPS. 3T3 cells were not challenged with bacteria. Next, the murine macrophage J774 and murine fibroblast 3T3 cells were incubated with the gels for 16 h at 37° C., 5% CO2. Hereafter, the medium was collected, centrifuged at 14,000 rpm during 20 min to remove particulate material and assayed for the indicated secreted proteins. Results are the mean of two independent experiments and are expressed as percentages of the control experiment.
(§6) A hydrogel was made by dissolving 2 g Kelset (Na^+—Ca^++ alginate) and 5 g PEG400 in a final volume of 100 ml growth medium [DMEM high glucose, 10% FCS, 4 mM L-Glutamine, antibiotics]. This mixture was further diluted with an additional 100 ml of growth medium to lower the viscosity of the solutions. The final concentration of PEG400 was 2.5%.
(§7) A similar solution without PEG400 was used as control.

VEGF [5] = assay: VEGF expression by fibroblast cells (3T3), comparison of humectants; assay type: cell-based, murine; conditions: 3T3 fibroblast cells
Description: as §4

pro-MMP9 = pro-MMP9 secretion by LPS-challenged J774 macrophages incubated with hydrogels; assay type: cell-based, murine
Method: as §5, §6
(§8) A hydrogel was made by dissolving 1 g Carbopol (polyacrylate), 5 g PEG400, 2.1 g Arginine and 3 g PCL (cetearyl octanoate) in a total volume of 100 ml growth medium [DMEM(high glucose), 10% FCS, 4 mM L-Glutamine, antibiotics]. This mixture was further diluted with an additional 100 ml of growth medium to lower the viscosity of the solutions. Cultures of murine macrophages J774 were used. The final concentration of PEG400 in contact with the cells was 2.5%. A similar solution without PEG400 was used as control.
(§9) A hydrogel was made by dissolving 3 g CMC ([…]), and 5 g PEG400 in a final volume of 100 ml growth medium [DMEM(high glucose), 10% FCS/4 mM L-Glutamine, antibiotics]. This mixture was further diluted with an additional 100 ml of growth medium to lower the viscosity of the solutions. Cultures of murine macrophages J774 were used. The final concentration of PEG400 was 2.5%. A similar solution without PEG400 was used as control.

HaCat keratinocytes = assay: Toxicity of PEG on cultivated cells (tetrazolium cell survival); assay type: cell-based
Method: as §1, §2, §3

IL-6 [6] = assay: IL-6 expression in 3T3 cells incubated with hydrogel; assay type: cell-based, murine; conditions: Na+-Ca++ alginate gel with 2.5% PEG400 vs gel without PEG400, 16 h
Method: as §5, §6, §7

Collagen type III = assay: Collagen III expression by 3T3 fibroblast cells; assay type: cell-based, murine; conditions: 3T3 cells
Description: This increase of collagen III expression was significant compared to control.

IL-6 [7] = assay: IL-6 secretion by LPS-challenged J774 macrophages incubated with hydrogels; assay type: cell-based, murine
Method: as §5, §6, §8, §9

[8] = overnight incubation, PEG 400 0.31-10% w/w
[9] = J774, alginate gel, 2.5% PEG400, 100 ng/ml LPS
[10] = J774, carboxymethylcellulose gel, 2.5% PEG400, 100 ng/ml LPS
[11] = J774, polyacrylate (Carbopol) gel, 2.5% PEG400, LPS

In the case of PEG 600 diacid, the “lowering of IL-6 expression” value (IL-6 [1]) is reported as “about 30%”, the VEGF expression (VEGF [2]; 3T3 fibroblasts, increasing amounts 0.078-0.625% w/w) is reported as “influenced” and the pro-MMP9 expression (proMMP-9; J774 cells challenged with heat inactivated E. coli after 30 min pre-incubation) is reported as “lowered”.
Polyethylene glycol [PEG 400] was tested, and the “effect on cell survival” value (J774 macrophages; concentrations below 5%) was “no detrimental effect”, the “concentration from which PEG has a cytotoxic effect” value (J774 macrophages; [8]) was ≥ 5% and the “effect on cell survival” value (3T3 fibroblasts; concentrations below 5%) was “no detrimental effect”. The “concentration from which PEG has a cytotoxic effect” value (3T3 fibroblasts; [8]) was ≥ 5%, the “PEG400 concentration of maximum VEGF expression” value (VEGF [2]; fibroblasts, 0.31-10% w/w tested) was 5% and the VEGF expression (VEGF [2]; fibroblasts, PEG400 concentrations between 2% and 10%) was “increases”. The “VEGF expression compared with 4% propylene glycol and 4% glycerol” value (VEGF [3]) was “highest expression”, the “secretion of proMMP9” value (proMMP-9; J774, PEG 400 concentration from about up to roughly 1% (w/w), 30 min pre-conditioning, heat inactivated E. coli, overnight) was “significantly reduced” and the VEGF expression (VEGF [4]) was “slightly increased”. The “VEGF expression compared with 4% propylene glycol and 4% glycerol” value (VEGF [5]) was “highest expression”, the “secretion of pro-MMP9” value (pro-MMP9; [9]) was “reduced” and the “expression of pro-MMP9” value (pro-MMP9; [10]) was “less reduced”. The “expression of pro-MMP9” value (pro-MMP9; [11]) was “reduced”, the “effect on cell survival” value (HaCat keratinocytes; keratinocytes, concentrations below 5%) was “no detrimental effect” and the “concentration from which PEG has a cytotoxic effect” value (HaCat keratinocytes; keratinocytes, overnight incubation, PEG 400 0.31-10% w/w) was ≥ 5%. The “concentration from which PEG400 is cytotoxic (summary statement)” value (HaCat keratinocytes; summary of Example 1, cell type not specified) was ≥ 5 % (w/w), the IL-6 expression (IL-6 [6]) was “decreased” and the “collagen III expression compared with 4% propylene glycol and 4% glycerol” value (Collagen type III) was “highest expression”. For the same substance, the “increase of collagen III expression compared to control” value (Collagen type III; 4%) was “significant”, the “secretion of IL-6” value (IL-6 [7]; [9]) was “reduced” and the “expression of IL-6” value (IL-6 [7]; [10]) was “clearly reduced”. The “expression of IL-6” value (IL-6 [7]; [11]) was “reduced”.
